The record followed here is patent US7572828B2, “Identification of anti-HIV compounds inhibiting virus assembly and binding of nucleocapsid protein to nucleic acid” (The United States of America as represented by the …, priority 2002, dated 2009).

The test system of one data set is HIV. The experiment in a line: XTT-cytoprotection assay, cell based anti-HIV screening in CEM-SS cells. The settings on record: for XTT: protection from HIV infection. The text has this:
One exemplary means to determine antiviral activity is with CEM-SS cells and virus (e.g., HIV-1RF) (MOI=0.01) using the XTT (2,3-bis[2-methoxy- 4-nitro-5-sulfophenyl]-5- [(phenylamino)carbonyl]-2H-tetrazolium hydroxide) cytoprotection assay (see, e.g., Weislow, et al, J. Natl. Canc. Inst. 81: 577-586, 1989; Rice PNAS 90:9721-9724, 1993; and Rice Antimicrob. Agents Chemother. 41:419-426, 1997). Briefly, cells are infected with HIV-1RF (or other virus to be tested) in the presence of various dilutions of test compounds (antimony or diphenyl compounds and controls). The cultures are incubated for seven days. […] The cell death is measured by XTT dye reduction. XTT is a soluble tetrazolium dye that measures mitochondrial energy output, similar to MTT. Positive controls using dextran sulfate (an attachment inhibitor) or 3′-Azido -2′-3′-dideoxythymidine, AZT (a reverse transcriptase inhibitor) are added to each assay. Individual assays are done in duplicate using a sister plate method.
Effective antiviral concentrations providing 50% cytoprotection (EC50), and cellular growth inhibitory concentrations causing 50% cytotoxicity (IC50) are calculated.
Cell based anti-HIV screening was performed in CEM-SS cells, using an XTT-cytoprotection assay (see, e.g., Weislow, et al, J. Natl. Canc. Inst. 81: 577-586, 1989; Rice PNAS 90:9721-9724, 1993; and Rice Antimicrob. Agents Chemother. 41:419-426, 1997)).
(In general: Tetrazolium dyes change colour on reduction, which living cells bring about.)

The next data set deals with T1, NC-p7 protein (Human immunodeficiency virus type 1 group M subtype B, UniProt P04591).
T1 construct: nucleocapsid p7 (NCp7) protein portion of the polyprotein
The experiment in a line: High throughput screen: disruption of association of viral NC-p7 protein with a biotinylated 28 base oligonucleotide. It counts as binding, HIV-1. Conditions: 10 μM of test compound; hit threshold 100% inhibition. The procedure: A high throughput screen was used to detect small molecules that disrupted the association of viral NC-p7 protein with an oligonucleotide. The assay was performed using a Tomtec Quadra robotic system. NC protein was immobilized on Costar (Corning, N.Y.) high-bind polystyrene 96 well plates by incubating 100 μl 250 nM NC-p7 in phosphate buffered saline (PBS)/10 μM zinc chloride/10 mM β-mercaptoethanol/0.05% Tween overnight at 4° C. 200 μl of 2% BSA in PBS/10 μM zinc chloride/10 mM β-mercaptoethanol/0.05% Tween was added and incubated at room temperature for 1-2 hours in order to block the plates. The plates were then washed 2 times with 200 μl PBS/10 μM zinc chloride/10 mM β-mercaptoethanol/0.05% Tween using a Titertek M96V plate washer and stored overnight at 4° C. 5 nM biotinylated 28 base oligonucleotide (5′ […] 3′) in PBS/10 μM zinc chloride/10 mM β-mercaptoethanot/0.05% Tween was added to each well followed by 10 μM of test compound (in 20% dimethyl sulphoxide) from the Diversity Set and allowed to incubate at room temperature for 1 hour. Plates were then washed 3 times with 200 μl PBS/0.05% Tween. Binding of the biotinylated 28 mer was measured by adding 100 μl 1:20000 dilution of nutravidin-horse radish peroxidase (stock 0.8 mg/ml, from Pierce Chemical Co. Rockford, Ill.) and incubating at room temperature for 1 hour. The plates were washed 3 times with 200 μl PBS/0.05% Tween. Plates were developed by adding 100 μl of Supersignal (Pierce Chemical Co. Rockford, Ill.) and bioluminescence was measured in a Wallac Victor plate reader. […] The hit threshold was set at 100% inhibition.

Another data set has as its target T2, Gag precursor protein (Human immunodeficiency virus type 1 group M subtype B, UniProt P04591).
T2 construct: human immunodeficiency virus type 1 Gag protein lacking the p6 domain; made in house
Description: Secondary screen: disruption of in vitro assembly of Gag precursor protein into virus-like particles. It counts as biochemical. The settings on record: for disrupted viral assembly: artificial viral particles from recombinant Gag protein and tRNA; for EC50: in vitro, assay not given. The text has this: A secondary screen was used to identify small molecules that disrupt in vitro assembly of Gag precursor protein into virus-like particles. Artificial viral particles were assembled from recombinant Gag protein and tRNA as previously described (see, e.g., Campbell & Rein, “In vitro assembly properties of human immunodeficiency virus type 1 Gag protein lacking the p6 domain” J. Virol. 73: 2270-2279, 1999). […]

The subject of the next data set is p24. Conditions: unit not given.
The subject of a further data set is CEM-SS Leukemia cells. The experiment in a line: Uptake of radio-labelled compound in cells. It counts as in vitro ADME.
The next data set in a line: Tolerability in mice. In kind it is in vivo.

As to `O=S(=O)(O)c1cc[c]([Sb](=[O])([OH])[OH])cc1` [NSC 13746], in the data set on HIV, the “activity in the cell based assay (XTT cytoprotection ranking)” value (“activity in the cell based assay” for short) is “active” and the XTT entry is “A (active (80-100% protection from HIV infection))”. Also, the “Active compounds identified in high throughput screen (disruption of NC-p7/oligonucleotide association)” value (“Active compounds identified” for short) on NC-p7 protein is listed as “Active”. At Gag precursor protein, the disrupted viral assembly entry is recorded as “disrupted viral assembly” and the EC50 is 10 µM.
As for `O=C(O)c1cc[c]([Sb](=[O])([OH])[OH])cc1[N+](=O)[O-]` [NSC 13755], in the data set on HIV, the “activity in the cell based assay” value is “active” and the XTT result is given as “A (active (80-100% protection from HIV infection))”. In addition, the “Active compounds identified” value on NC-p7 protein is listed as “Active”. Moreover, on Gag precursor protein, the disrupted viral assembly result is reported as “disrupted viral assembly” and the EC50 is 6.15 µM. In addition, the p24 assay with p24 came out at 0.21.
As for `O=C(O)c1ccc[c]([Sb](=[O])([OH])[OH])c1` [NSC 13759], in the data set on HIV, the “activity in the cell based assay” value is “active” and the XTT entry is listed as “A (active (80-100% protection from HIV infection))”. For the same compound, on Gag precursor protein, the disrupted viral assembly entry is “disrupted viral assembly” and the EC50 was 1.5 µM. This compound returned a p24 assay in the data set with p24 of 0.19.
On to `O=C(O)c1cc[c]([Sb](=[O])([OH])[OH])cc1` [NSC 13760], for which, in the data set on HIV, the “activity in the cell based assay” value is given as “active” and the XTT result is “A (active (80-100% protection from HIV infection))”. At Gag precursor protein, the disrupted viral assembly result was “disrupted viral assembly” and the EC50 was determined as 1.15 µM. The compound further returned a p24 assay with p24 of 0.29.
On to `NC(=O)c1ccc[c]([Sb](=[O])([OH])[OH])c1` [NSC 13765], for which, in the data set on HIV, the “activity in the cell based assay” value was “active” and the XTT entry is “A (active (80-100% protection from HIV infection))”. On Gag precursor protein, the disrupted viral assembly result is “disrupted viral assembly” and the EC50 was found to be 3.75 µM. In the data set on p24, the p24 assay is 0.41.
As for `COC(=O)c1ccc[c]([Sb](=[O])([OH])[OH])c1` [NSC 13771], the XTT entry with HIV was “I (inactive (0-49% protection))”. In addition, on Gag precursor protein, the disrupted viral assembly result is reported as “disrupted viral assembly” and the EC50 came to 5.5 µM. The same compound came in with a p24 assay with p24 of 0.2.
For `O=C(O)/C=C/c1ccc[c]([Sb](=[O])([OH])[OH])c1` [NSC 13778], in the data set with CEM-SS Leukemia cells, the “uptake of the compound in cells” value is “energy-dependent uptake”. Besides, in the data set on HIV, the “activity in the cell based assay” value is “active” and the XTT entry is given as “A (active (80-100% protection from HIV infection))”. Besides, the “Active compounds identified” value on NC-p7 protein is given as “Active”. In the data set “Tolerability in mice”, the tolerability in vivo result is “tolerated in vivo”. On Gag precursor protein, the disrupted viral assembly result is “disrupted viral assembly” and the EC50 was 3.8 µM. This compound also had a p24 assay with p24 of 0.11.
Take `O=C(NCCO)c1ccc[c]([Sb](=[O])([OH])[OH])c1` [NSC 13782]: the “activity in the cell based assay” value in the data set with HIV is given as “exhibited activity”.
With `CCOC(=O)CCCc1cc[c]([Sb](=[O])([OH])[OH])cc1` [NSC 13793], the XTT result with HIV is “I (inactive (0-49% protection))”. At Gag precursor protein, the disrupted viral assembly entry is given as “disrupted viral assembly” and the EC50 was 3.25 µM. This compound returned a p24 assay in the data set with p24 of 0.14.
Consider `O=C(O)c1ccc(C(=O)c2ccccc2C(=O)O)cc1C(=O)O` [NSC 28620], for which the “activity in the cell based assay” value with HIV was “active”. Moreover, at NC-p7 protein, the “Active compounds identified” value was “Active”. At Gag precursor protein, the disrupted viral assembly result is “disrupted viral assembly”.

As a reminder, the EC50 is the midpoint of the concentration-response curve.
